# Assay: Tail vein toxicity
# Format: in vivo
# Conditions: male ICR mice, IV lateral tail vein, 20 mg/kg at 0, 24, 48 and 72 hours, monitored 7 days; in comparison to pseudomycin B
# Procedure: Mice were treated intravenously (IV) through the lateral tail vein with 0.1 ml of testing compound (20 mg/kg) at 0, 24, 48 and 72 hours. Two mice were included in each group. Compounds were formulated in 5.0% dextrose and sterile water for injection. The mice were monitored for 7 days following the first treatment and observed closely for signs of irritation including erythema, swelling, discoloration, necrosis, tail loss and any other signs of adverse effects indicating toxicity.
# The mice used in the study were outbred, male ICR mice having an average weight between 18-20 g (available from Harlan Sprangue Dawley, Indianapolis, Ind.
structure (smiles),measurement,value
C/C=C1\NC(=O)[C@H]([C@H](C)O)NC(=O)[C@H](CCNC(=O)OCc2ccc(OP(=O)(OCc3ccccc3)OCc3ccccc3)cc2)NC(=O)[C@H](CCCCNC(=O)OCc2ccc(OP(=O)(OCc3ccccc3)OCc3ccccc3)cc2)NC(=O)[C@H](CC(=O)O)NC(=O)[C@@H](CCNC(=O)OCc2ccc(OP(=O)(OCc3ccccc3)OCc3ccccc3)cc2)NC(=O)[C@@H](NC(=O)CC(O)CCCCCCCCCCC)COC(=O)[C@H]([C@H](O)CCl)NC(=O)[C@H](C(O)C(=O)O)NC1=O (stereo partly shown) [Compound 1A-1],tail vein toxicity,improvement in tail vein toxicity

# Source: patent US20030008814A1, “Pseudomycin phosphate prodrugs” (priority 2002, published 2003)
